One compound from patent US4448714A, “Antibiotic polypeptide compounds prepared from staphlococcus bacteria” (priority 1979, dated 1984) can be followed below.

The subject of this experiment is S. Epidermidis NCIB 11536. The experiment is described as follows: Antibiotic sensitivities of the producer strain (disc). The experiment is classed as cell-based. The conditions noted are these: 5 μg disc; strain characteristics table.

With `CO[C@@H]1[C@@H](OC(N)=O)[C@@H](O)[C@H](Oc2ccc3c(O)c(NC(=O)c4ccc(O)c(CC=C(C)C)c4)c(=O)oc3c2C)OC1(C)C` [novobiocin], the Novobiocin sensitivity entry is “sensitive”.
